How the values were obtained:
Assay type in all cases: cell-based; call rule not given here
[1] = molecular target: T1, Transient receptor potential cation channel subfamily A member 1 (Rattus norvegicus, UniProt Q6RI86); experiment: Agonist activity at rat recombinant TRPA1 expressed in HEK293 cells assessed as Ca2+ influx by Fluo-4 dye based assay
[2] = molecular target: T2, Transient receptor potential cation channel subfamily V member 1 (Homo sapiens, UniProt Q8NER1); experiment: Agonist activity at human recombinant TRPV1 expressed in HEK293 cells assessed as Ca2+ influx by Fluo-4 dye based assay relative to 4 uM ionomycin
T2 sequence (Q8NER1 whole entry): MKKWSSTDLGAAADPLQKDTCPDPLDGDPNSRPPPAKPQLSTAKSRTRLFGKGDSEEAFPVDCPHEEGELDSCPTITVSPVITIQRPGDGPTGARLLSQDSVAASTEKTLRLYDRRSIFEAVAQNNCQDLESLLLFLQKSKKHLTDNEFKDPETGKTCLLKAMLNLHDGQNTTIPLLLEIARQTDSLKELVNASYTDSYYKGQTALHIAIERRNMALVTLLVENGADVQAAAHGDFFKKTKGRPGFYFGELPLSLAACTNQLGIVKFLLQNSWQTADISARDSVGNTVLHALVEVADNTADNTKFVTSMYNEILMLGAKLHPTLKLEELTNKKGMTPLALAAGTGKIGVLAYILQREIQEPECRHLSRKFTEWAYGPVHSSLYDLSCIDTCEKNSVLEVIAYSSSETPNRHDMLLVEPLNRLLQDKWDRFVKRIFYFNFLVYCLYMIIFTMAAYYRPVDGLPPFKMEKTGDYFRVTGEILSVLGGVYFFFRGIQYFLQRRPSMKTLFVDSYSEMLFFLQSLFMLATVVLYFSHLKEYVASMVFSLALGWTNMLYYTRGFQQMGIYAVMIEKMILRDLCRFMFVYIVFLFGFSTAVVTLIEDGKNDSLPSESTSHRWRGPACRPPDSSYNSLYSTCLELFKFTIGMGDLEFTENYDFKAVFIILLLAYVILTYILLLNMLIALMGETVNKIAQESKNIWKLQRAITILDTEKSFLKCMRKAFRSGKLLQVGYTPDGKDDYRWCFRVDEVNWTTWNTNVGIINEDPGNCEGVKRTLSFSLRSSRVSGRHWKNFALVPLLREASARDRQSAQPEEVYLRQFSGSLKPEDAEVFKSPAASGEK

[3] = molecular target: T2, Transient receptor potential cation channel subfamily V member 1; experiment: Antagonist activity against human recombinant TRPV1 expressed in HEK293 cells assessed as inhibition of capsaicin-induced Ca2+ influx pre-treated 5 mins before capsaicin addition by Fluo-4 dye based assay
[4] = molecular target: Transient receptor potential cation channel subfamily A member 1 (Rattus norvegicus) (UniProt Q6RI86); experiment: Agonist activity at rat recombinant TRPA1 expressed in HEK293 cells assessed as Ca2+ influx by Fluo-4 dye based assay relative to 100 uM AITC
Transient receptor potential cation channel subfamily A member 1 (Rattus norvegicus), sequence (Q6RI86 whole entry): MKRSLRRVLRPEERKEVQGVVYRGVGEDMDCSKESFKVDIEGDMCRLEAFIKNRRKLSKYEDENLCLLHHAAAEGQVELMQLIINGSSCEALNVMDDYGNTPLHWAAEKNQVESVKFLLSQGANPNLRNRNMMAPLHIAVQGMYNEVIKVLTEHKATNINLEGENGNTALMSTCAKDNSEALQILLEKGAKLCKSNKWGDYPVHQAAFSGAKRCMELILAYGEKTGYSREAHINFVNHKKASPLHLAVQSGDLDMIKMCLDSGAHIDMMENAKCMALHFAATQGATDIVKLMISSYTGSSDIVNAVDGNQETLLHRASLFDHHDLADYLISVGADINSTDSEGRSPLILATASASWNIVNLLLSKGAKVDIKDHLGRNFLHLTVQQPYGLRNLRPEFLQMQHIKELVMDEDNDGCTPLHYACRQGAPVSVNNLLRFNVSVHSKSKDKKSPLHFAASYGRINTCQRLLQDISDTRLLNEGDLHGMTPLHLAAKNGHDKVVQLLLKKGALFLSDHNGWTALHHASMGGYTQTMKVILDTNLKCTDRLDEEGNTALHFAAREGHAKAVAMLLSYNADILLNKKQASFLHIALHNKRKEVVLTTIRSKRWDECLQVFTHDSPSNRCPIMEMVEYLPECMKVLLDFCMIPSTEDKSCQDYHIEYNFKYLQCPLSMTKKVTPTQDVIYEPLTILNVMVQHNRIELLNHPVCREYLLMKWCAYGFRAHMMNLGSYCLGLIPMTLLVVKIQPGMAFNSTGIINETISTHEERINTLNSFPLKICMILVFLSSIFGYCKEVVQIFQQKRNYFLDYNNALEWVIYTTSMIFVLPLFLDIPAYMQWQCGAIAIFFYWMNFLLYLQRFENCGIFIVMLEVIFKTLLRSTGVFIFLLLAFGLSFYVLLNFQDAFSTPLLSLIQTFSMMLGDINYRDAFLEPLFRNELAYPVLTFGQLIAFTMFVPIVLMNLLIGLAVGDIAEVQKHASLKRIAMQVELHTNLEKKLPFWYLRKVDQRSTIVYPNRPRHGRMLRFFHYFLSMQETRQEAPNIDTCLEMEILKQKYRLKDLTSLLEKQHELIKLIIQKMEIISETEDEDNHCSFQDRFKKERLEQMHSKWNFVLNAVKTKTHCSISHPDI

[5] = molecular target: T1, Transient receptor potential cation channel subfamily A member 1; experiment: Antagonist activity against rat recombinant TRPA1 expressed in HEK293 cells assessed as inhibition of AITC-induced Ca2+ influx pre-treated 5 mins before capsaicin addition by Fluo-4 dye based assay
[6] = molecular target: T2, Transient receptor potential cation channel subfamily V member 1; experiment: Agonist activity at human recombinant TRPV1 expressed in HEK293 cells assessed as Ca2+ influx by Fluo-4 dye based assay

T1 sequence (Q6RI86 whole entry): as above

Compound | EC50 ([1]; hek293) | Efficacy [2] [%] | IC50 [3] [µM] | Efficacy [4] [%] | IC50 [5] [µM] | EC50 ([1]; read-out: EC50) [µM] | EC50 ([6]; read-out: EC50) [µM] | EC50 ([6]; hek293)
COc1cc(CNC(=O)CCCC/C=C/C(C)C)ccc1O [CAPSAICIN] | Not Active | – | – | – | – | – | – | –
CCCCCCCC/C=C\CCCCCCCCn1nnc(-c2ccc(O)c(OC)c2)n1 | – | 24.2 | > 100 | 83.1 | 1 | 0.83 | 5.5 | –
CCCCCC[C@H](C/C=C\CCCCCCCCn1nnc(-c2ccc(O)c(OC)c2)n1)OC(=O)Cc1ccccc1 | – | < 10 | > 100 | 72.6 | 2.9 | 0.81 | – | Not Active
CCCCCC[C@@H](O)C/C=C\CCCCCCCCn1nnc(-c2ccc(O)c(OC)c2)n1 | – | 21 | 57.5 | 62.6 | 11.2 | 36.7 | 37.5 | –
CCCCCCCCCn1nnc(-c2ccc(O)c(OC)c2)n1 | – | 28.5 | 36 | 65.9 | 1.71 | 1.41 | 6.9 | –
C=CCN=C=S | – | – | – | 38.9 | – | – | – | –
